These results are taken from paper PMC8017616, “Discovery of two novel laccase-like multicopper oxidases from Pleurotus citrinopileatus and their application in phenolic oligomer synthesis” (Biotechnology for Biofuels, 2021).

Common to all, as to details: 50 mM phosphate-citrate buffer pH 4; routine assay 35 °C
The test system of assay [1] is T1, PcLac2.
T1 construct: native, purified from culture supernatant (Q Sepharose, DEAE Sepharose); about 75 kDa by SDS-PAGE; band also holds a copper radical oxidase-like protein
Briefly: spectrophotometric oxidation at […] nm, nonlinear Michaelis-Menten fit. The assay is classed as biochemical, Pleurotus citrinopileatus.

Assay [2] concerns T2, PcLac1.
T2 construct: native, purified from culture supernatant (Q Sepharose, DEAE Sepharose); 60 kDa by SDS-PAGE
Described as above. It counts as biochemical, Pleurotus citrinopileatus.

Assay [3] concerns PcLac1.
Assay [4] has as its system PcLac2.

Each structure is given as a SMILES string. Counter-ions that a name gives are not always drawn. Like-named read-outs stand apart in the source and are kept apart here.

By Km is commonly meant the concentration of substrate that gives half-maximal velocity. Take `COc1cccc(OC)c1O` [2,6-DMP, 2,6-dimethoxyphenol]: the Km turned out to be 1.07 ± 0.105 mM with PcLac2 [1] and 672 ± 56 µM with PcLac1 [2].

In the case of `CCn1c(=NN=c2sc3cc(S(=O)(=O)O)ccc3n2CC)sc2cc(S(=O)(=O)O)ccc21` [ABTS, 2,2′-Azino-bis-(3-ethylbenzthioazoline-6-sulfonic acid) diammonium salt], the Km came to 60 ± 7 µM in the assay with PcLac1 [3] and 165 ± 15 µM in the assay on PcLac2 [4].
